Measurements: patent US20220409649A1, “a-GLUCOSIDASE INHIBITOR, INVERTASE INHIBITOR, AND SUGAR ABSORPTION INHIBITOR” (Kinki University, priority 2019, published 2022)
pIC50: −log10 of the molar value.

How the values were obtained:
[1] = Oral glucose tolerance testing using sucrose, OLETF rats with diabetes; assay type: in vivo; conditions: oral co-administration with sucrose, FIG. 8
Method: (§1) Glucose tolerance testing of normal Wistar type rats and OLETF rats with diabetes was performed using the compound (I). After fasted for 14 hours, glucose was loaded, and blood taken from tail veins of the rats was subjected to various tests.
(§2) An aqueous solution containing […] of sucrose (hereinafter, also referred to as “A Liquid”) and an aqueous solution containing […] of sucrose and 0.085 mg/ml of the compound (I) (hereinafter, also referred to as “B Liquid”) were prepared. Six normal 7-week-old rats (male) were divided into two groups. In one group, the A liquid was orally administered such that an amount of sucrose was 1.5 g/kg based on the rat body weight. In the other group, the B liquid was orally administered such that the amount of sucrose was 1.5 g/kg based on the rat body weight. Blood was taken from the tail veins of the rats before the administration and in 30 minutes, 60 minutes, 90 minutes, and 120 minutes after the administration, and then plasma was obtained by centrifugation. For the obtained plasma, glucose and insulin were quantified.

[2] = biological target: T1, sucrase (sucrose as substrate) (Rattus norvegicus, UniProt P23739); assay: Screening of enzyme inhibition, rat intestinal acetone powder crude enzyme, sucrose as substrate; assay type: biochemical; conditions: 10 μL inhibitor solution (3.4 mg/mL diluted 100 times), five hours
T1 construct: the supernatant was used as a purified enzyme; from tissue; host or cells: rat intestine (acetone powder, supernatant of homogenate)
Method: (§3) As a crude enzyme mixture, 50 mg of rat intestinal acetone powder was added to 450 μL of 50 mmol/L phosphate buffer solution (pH 6.0), the mixture was stirred for 30 seconds, and then homogenized. Thereafter, the mixture was centrifuged (10000 rpm, 4° C., 20 minutes), and the supernatant was used as a purified enzyme (50 mg/450 μL). Sucrose and two types of glucose disaccharides (maltose and isomaltose) having different bonds were used as substrates. 3.4 mg of each of the two types of substrates was dissolved in 100 μL of phosphate buffer solution, and each solution was used as a substrate solution. A solution obtained by dissolving 3.4 mg of the compound (I) as a competitive inhibitor in 1 mL of phosphate buffer solution and diluting 100 times, was used as an inhibitor solution. 100 μL of the substrate solution and 10 μL of the inhibitor solution were mixed, and pre-incubation was performed for five minutes. Then, 90 μL of an enzyme solution was added to start incubation. Five hours later, 10 μL of the reaction solution was heated in a water bath for 10 minutes to stop the reaction, followed by the PMP derivatization, and then the capillary electrophoresis. An enzyme reaction solution under the same conditions without the inhibitor was used as a blank. The inhibition rate was calculated for each substrate using the same equation as that in the invertase inhibition analysis.

[3] = biological target: T2, isomaltase (isomaltose as substrate) (Rattus norvegicus, UniProt P23739); assay: Screening of enzyme inhibition, rat intestinal acetone powder crude enzyme, isomaltose as substrate; assay type: biochemical; conditions: 10 μL inhibitor solution (3.4 mg/mL diluted 100 times), five hours
T2 construct: the supernatant was used as a purified enzyme; from tissue; host or cells: rat intestine (acetone powder, supernatant of homogenate)
Method: as §3

[4] = biological target: invertase (Saccharomyces cerevisiae, UniProt P00724); assay: Invertase inhibition analysis by compound (I); assay type: biochemical
Method: For invertase inhibition analysis, 100 μg of sucrose as a substrate and 1 μg, 10 μg, or 100 μg of the compound (I) being the invertase inhibitor were added to 50 μL of 100 mmol/L acetate buffer solution, and pre-incubation was performed at 37° C. for five minutes. Thereafter, 50 μL of 0.2 U/mL invertase solution was added, and incubation was performed for 15 minutes. Thereafter, 10 μL of the reaction mixture was heated in a water bath to inactivate the enzyme and evaporated and dried, and the PMP derivatization was performed. A substance subjected to the enzyme reaction under the same conditions without adding the inhibitor was used as a blank. In each sample, the concentration required for the compound (I) to inhibit 50% of the enzyme was defined as IC50. An inhibition rate by the compound (I) was calculated using a following equation.
Inhibition rate (%)=[D1−(D2−D3)/1]×100 (Equation 1)
D1: Peak area of glucose in blank sample
D2: Peak area of glucose in each sample after enzyme reaction
D3: Peak area of glucose contained in inhibitor as an impurity
The IC50 value was calculated from a dose-response curve of the compound (I) used as the inhibitor.

[5] = Oral glucose tolerance testing using sucrose, normal rats; assay type: in vivo, normal Wistar type rats; conditions: oral co-administration with sucrose 1.5 g/kg, FIG. 7
Method: as §1, §2

[6] = test system: maltase (maltose as substrate); assay: Screening of enzyme inhibition, rat intestinal acetone powder crude enzyme, maltose as substrate; assay type: biochemical; conditions: 10 μL inhibitor solution (3.4 mg/mL diluted 100 times), five hours
Method: as §3

[7] = test system: Maltase α-(1-4)glucosidase; assay: Maltase inhibition analysis by compound (I) (Table 2); assay type: biochemical

Sequence of invertase (P00724 20-532): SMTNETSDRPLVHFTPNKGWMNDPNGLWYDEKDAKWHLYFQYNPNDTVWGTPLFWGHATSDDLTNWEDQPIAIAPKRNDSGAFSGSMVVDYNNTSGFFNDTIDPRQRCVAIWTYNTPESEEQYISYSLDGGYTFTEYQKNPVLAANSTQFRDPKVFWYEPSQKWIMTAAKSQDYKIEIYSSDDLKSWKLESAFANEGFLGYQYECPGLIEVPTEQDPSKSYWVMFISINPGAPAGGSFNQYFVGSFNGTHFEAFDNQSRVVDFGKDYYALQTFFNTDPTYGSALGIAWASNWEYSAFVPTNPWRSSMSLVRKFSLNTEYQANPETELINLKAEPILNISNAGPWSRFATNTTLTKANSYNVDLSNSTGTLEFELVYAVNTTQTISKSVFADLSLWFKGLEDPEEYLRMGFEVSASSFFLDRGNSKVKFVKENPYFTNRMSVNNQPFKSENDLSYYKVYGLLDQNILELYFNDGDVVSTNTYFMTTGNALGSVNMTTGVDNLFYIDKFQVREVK
T2 sequence (P23739 1-1013 limits assumed): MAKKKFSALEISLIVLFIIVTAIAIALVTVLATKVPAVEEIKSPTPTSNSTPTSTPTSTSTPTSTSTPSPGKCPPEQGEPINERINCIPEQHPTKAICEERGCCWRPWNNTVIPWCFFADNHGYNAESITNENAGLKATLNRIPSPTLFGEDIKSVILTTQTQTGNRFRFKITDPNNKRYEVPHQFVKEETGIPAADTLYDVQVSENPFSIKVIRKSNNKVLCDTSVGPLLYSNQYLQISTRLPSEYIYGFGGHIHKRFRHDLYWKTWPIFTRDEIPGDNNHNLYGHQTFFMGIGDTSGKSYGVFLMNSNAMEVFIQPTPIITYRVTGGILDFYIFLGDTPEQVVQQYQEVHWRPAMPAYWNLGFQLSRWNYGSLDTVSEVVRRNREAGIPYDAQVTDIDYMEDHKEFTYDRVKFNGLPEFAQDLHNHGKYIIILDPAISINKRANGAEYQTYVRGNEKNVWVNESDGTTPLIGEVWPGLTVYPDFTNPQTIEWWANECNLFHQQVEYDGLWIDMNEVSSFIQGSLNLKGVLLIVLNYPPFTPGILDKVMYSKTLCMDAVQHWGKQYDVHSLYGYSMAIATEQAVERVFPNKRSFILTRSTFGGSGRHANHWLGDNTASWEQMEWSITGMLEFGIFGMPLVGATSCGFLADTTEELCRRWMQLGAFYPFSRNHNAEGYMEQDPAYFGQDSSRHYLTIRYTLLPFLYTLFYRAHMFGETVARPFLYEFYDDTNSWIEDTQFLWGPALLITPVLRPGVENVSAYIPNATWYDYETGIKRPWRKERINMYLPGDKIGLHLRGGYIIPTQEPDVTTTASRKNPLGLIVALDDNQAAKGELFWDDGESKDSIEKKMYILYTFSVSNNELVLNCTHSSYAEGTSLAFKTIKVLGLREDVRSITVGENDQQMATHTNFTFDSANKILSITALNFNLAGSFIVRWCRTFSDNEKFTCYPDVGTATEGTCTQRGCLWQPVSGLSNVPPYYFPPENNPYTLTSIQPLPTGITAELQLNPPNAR
T2 sequence (P23739 1014-1841 limits assumed): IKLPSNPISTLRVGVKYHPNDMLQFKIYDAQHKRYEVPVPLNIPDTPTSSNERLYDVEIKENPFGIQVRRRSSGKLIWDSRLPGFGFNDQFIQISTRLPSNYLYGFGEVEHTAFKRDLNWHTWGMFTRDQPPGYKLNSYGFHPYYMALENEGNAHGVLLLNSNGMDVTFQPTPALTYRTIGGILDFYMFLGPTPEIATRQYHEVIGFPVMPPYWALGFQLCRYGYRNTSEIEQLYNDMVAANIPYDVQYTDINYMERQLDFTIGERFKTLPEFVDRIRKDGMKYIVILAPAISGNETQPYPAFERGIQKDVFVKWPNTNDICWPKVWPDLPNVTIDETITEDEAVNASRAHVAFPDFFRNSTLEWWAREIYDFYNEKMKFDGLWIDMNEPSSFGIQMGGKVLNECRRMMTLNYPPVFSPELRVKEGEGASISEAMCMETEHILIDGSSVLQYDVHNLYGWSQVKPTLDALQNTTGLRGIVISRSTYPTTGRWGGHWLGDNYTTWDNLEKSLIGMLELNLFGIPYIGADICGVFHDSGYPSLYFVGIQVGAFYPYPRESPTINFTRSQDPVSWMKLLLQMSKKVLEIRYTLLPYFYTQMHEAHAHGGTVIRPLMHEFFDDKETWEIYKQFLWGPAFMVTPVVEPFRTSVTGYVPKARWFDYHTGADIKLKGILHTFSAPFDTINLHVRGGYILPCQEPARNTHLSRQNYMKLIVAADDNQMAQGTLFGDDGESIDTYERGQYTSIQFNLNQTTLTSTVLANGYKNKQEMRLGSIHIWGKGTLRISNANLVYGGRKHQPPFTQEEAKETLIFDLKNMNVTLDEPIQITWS
T1 sequence (P23739 1-1013 limits assumed): as the sequence (P23739 1-1013 limits assumed) above
T1 sequence (P23739 1014-1841 limits assumed): as the sequence (P23739 1014-1841 limits assumed) above

For `OCC1OC(CO)(OCC2OC(O)C(O)C(O)C2O)C(O)C1O` (centres unmarked) [compound (I), Maplebiose], the “changes with time of insulin” value [1] was “similar”, the “plasma glucose value relative to rats not administered with the compound (I)” value [1] was “about 50%” and the Inhibition rate [2] was 12.3%. The Inhibition rate [3] was 3.3%, the “Peak response (Glc)” value ([4]; 1 μg inhibitor) was 18.2 and the “Peak response (Glc)” value ([4]; 10 μg inhibitor) was 17.2. For the same compound, the “Peak response (Glc)” value ([4]; 100 μg inhibitor) was 23.1, the “changes with time of insulin” value [5] was “similar” and the “plasma glucose value vs rats not administered with the compound (I)” value [5] was “significantly lower”. The Inhibition rate [6] was 9.4%, the “Inhibition (%)” value ([7]; 1 μg inhibitor) was 39.1% and the “Inhibition (%)” value ([7]; 10 μg inhibitor) was 49.4%. For the same compound, the “Inhibition (%)” value ([7]; 100 μg inhibitor) was 54.2% and the pIC50 ([7]; calculated using a straight line from concentrations and inhibition rates) was 2.76.
